Our source for the IC50 values is patent US20240174659A1, “COMPOUNDS AND METHODS FOR YAP/TEAD MODULATION AND INDICATIONS THEREFOR” (Opna Bio SA, priority 2021, published 2024).

Structures can show the parent of a compound that is named as a salt.

The test system of this assay is TEAD-dependent transcription. Briefly: Inhibitor activity against TEAD-dependent transcription in a cell-based reporter assay (MSTO-211H+12XGTIIC luciferase). Particulars: Homo sapiens; MSTO-211H+12XGTIIC cells, 24 hours incubation, luciferase luminescence normalized to cell viability fluorescence, geometric mean; read-out: MSTO-211H GMean IC50 (uM) Cell Assay Reporter Cell Variant: TEAD. The text has this: Determine Inhibitor Activity Against TEAD-Dependent Transcription in a Cell-Based Reporter Assay
The human mesothelioma cell line MSTO-211H was stably transfected with a pGL4.21 plasmid containing a synthetic promoter with 12 copies of the GTIIC TEAD response element that drives the expression of a luciferase reporter gene^1 using Lipofectamine transfection reagent (Thermo Fisher). Transfected cells were selected using puromycin and single cell clones expressing this construct (referred to as MSTO-211H+12XGTIIC) were generated by limiting dilution. MSTO-211H cells was characterized by genetic alterations in key components of the Hippo pathway^2, resulting in up-regulation of YAP/TEAD-mediated transcription. […] To evaluate TEAD inhibitors, the MSTO-211H+12XGTIIC cell line was seeded in a 96-well plate in 50 μL of culture media at 1×10^4 cells per well and incubated at 37° C. overnight. Serial dilutions of compounds (in total volume of 50 μL of culture media) were added to the cells and incubated at 37° C. for 24 hours. Each plate included cells treated with DMSO as high controls and cells treated with 20 μM of the reference compound K-975 (a known TEAD inhibitor)^3 as low controls. Cell viability was assayed by the addition of 25 μL of CellTiter-Fluor reagent (Promega) followed by a 30-minute incubation at 37° C. and quantification of the fluorescence signal (Ex400/Em505). Subsequently, luciferase expression was assayed by the addition of 25 μL of ONE-Glo reagent (Promega) followed by a 10-minute incubation at room temperature and quantification of the luminescence signal. The luminescence signal was normalized to the fluorescence signal to correct for any loss in cell viability over the 24-hour compound incubation period. The percentage of inhibition of normalized luminescence signal, indicative of compound-mediated inhibition of TEAD-dependent transcription, at individual compound concentrations relative to high and low controls was calculated. The data were analyzed by using nonlinear regression to generate IC50 values for individual compounds.
For orientation: A reporter such as luciferase makes a cellular process visible.
For the molecule `C=CC(=O)N1CCc2c(F)cc(Oc3ccc(C(F)(F)F)nc3)cc2C1` [P-0101, 1-(5-fluoro-7-((6-(trifluoromethyl)pyridin-3-yl)oxy)-3,4-dihydroisoquinolin-2(1H)-yl)prop-2-en-1-one], the IC50 was in the range of 0.001 to 0.5 µM.

As to `C=CC(=O)N1CCc2ccc(Cc3ccc(F)cc3)cc2C1` [P-0035, 1-(7-(4-fluorobenzyl)-3,4-dihydroisoquinolin-2(1H)-yl)prop-2-en-1-one], the IC50 was in the range of 0.001 to 0.5 µM.

Take `C=CC(=O)N1Cc2cc(Oc3ccc(C(F)(F)F)cc3)ccc2C[C@H]1C(=O)OC` [P-0112, methyl (S)-2-acryloyl-7-(4-(trifluoromethyl)phenoxy)-1,2,3,4-tetrahydroisoquinoline-3-carboxylate]: the IC50 fell in the range of 0.001 to 0.5 µM.

As for `C=CC(=O)N1CCc2ccc(OC3CC(F)(F)C3)cc2C1` [P-0020, 1-(7-(3,3-difluorocyclobutoxy)-3,4-dihydroisoquinolin-2(1H)-yl)prop-2-en-1-one], the IC50 lay within 0.001 to 0.5 µM.

Consider `C=CC(=O)N1CCc2cc(C)c(Oc3cccc(F)c3)cc2C1` [P-0042, 1-(7-(3-fluorophenoxy)-6-methyl-3,4-dihydroisoquinolin-2(1H)-yl)prop-2-en-1-one], for which the IC50 fell in the range of 0.001 to 0.5 µM.

With `C=CC(=O)N1CCc2ccc(OCC3CCC(F)(F)C3)cc2C1` (centres unmarked) [P-0130, 1-(7-((3,3-difluorocyclopentyl)methoxy)-3,4-dihydroisoquinolin-2(1H)-yl)prop-2-en-1-one], the IC50 lay in the range of 0.001 to 0.5 µM.

For the molecule `C=CC(=O)N1CCc2ccc(Oc3ccccn3)cc2C1` [P-0059, 1-(7-(pyridin-2-yloxy)-3,4-dihydroisoquinolin-2(1H)-yl)prop-2-en-1-one], the IC50 is > 20 µM.

As to `C=CC(=O)N1CCc2ccc(OCc3ccccc3C(F)(F)F)cc2C1` [P-0088, 1-(7-((2-(trifluoromethyl)benzyl)oxy)-3,4-dihydroisoquinolin-2(1H)-yl)prop-2-en-1-one], the IC50 lay in the range of 0.001 to 0.5 µM.

Consider `C=CC(=O)N1CCc2ccc(Cc3ccc(C(F)(F)F)nc3)cc2C1` [P-0104, 1-(7-((6-(trifluoromethyl)pyridin-3-yl)methyl)-3,4-dihydroisoquinolin-2(1H)-yl)prop-2-en-1-one], for which the IC50 lay within 0.001 to 0.5 µM.

Consider `C=CC(=O)N1CCc2ccc(Oc3ccc(C)nc3)cc2C1` [P-0036, 1-(7-((6-methylpyridin-3-yl)oxy)-3,4-dihydroisoquinolin-2(1H)-yl)prop-2-en-1-one], for which the IC50 was in the range of 0.001 to 0.5 µM.

As for `C=CC(=O)N1Cc2cc(Oc3ccc(C(F)(F)F)nc3)ccc2C(C)C1` (centres unmarked) [P-0093, 1-(4-methyl-7-((6-(trifluoromethyl)pyridin-3-yl)oxy)-3,4-dihydroisoquinolin-2(1H)-yl)prop-2-en-1-one], the IC50 fell in the range of 0.001 to 0.5 µM.

`C=CC(=O)N1CCc2ccc(OCC3CCC(F)(F)CC3)cc2C1` [P-0080, 1-(7-((4,4-difluorocyclohexyl)methoxy)-3,4-dihydroisoquinolin-2(1H)-yl)prop-2-en-1-one]: the IC50 lay in the range of 0.001 to 0.5 µM.

In the case of `C=CC(=O)N1CCc2ccc(Oc3ccnc(C(F)(F)F)c3)cc2C1` [P-0060, 1-(7-((2-(trifluoromethyl)pyridin-4-yl)oxy)-3,4-dihydroisoquinolin-2(1H)-yl)prop-2-en-1-one], the IC50 lay in the range of 0.001 to 0.5 µM.

In the case of `CN1CCN(C/C=C/C(=O)N2CCc3ccc(Oc4cccc(F)c4)cc3C2)CC1` [P-0040, (E)-1-(7-(3-fluorophenoxy)-3,4-dihydroisoquinolin-2(1H)-yl)-4-(4-methylpiperazin-1-yl)but-2-en-1-one], the IC50 is > 20 µM.

On to `C=CC(=O)N1CCc2ccc(Nc3cccc(F)c3)cc2C1` [P-0004, 1-(7-((3-fluorophenyl)amino)-3,4-dihydroisoquinolin-2(1H)-yl)prop-2-en-1-one], for which the IC50 was 0.001 to 0.5 µM.

On to `C=CC(=O)N1CCc2ccc(Oc3ccc(Cl)cc3)cc2C1` [P-0015, 1-(7-(4-chlorophenoxy)-3,4-dihydroisoquinolin-2(1H)-yl)prop-2-en-1-one], for which the IC50 is 0.001 to 0.5 µM.

As to `C=C(C)S(=O)(=O)N1CCc2ccc(Oc3ccc(C(F)(F)F)cc3)cc2C1` [P-0127, 2-(prop-1-en-2-ylsulfonyl)-7-(4-(trifluoromethyl)phenoxy)-1,2,3,4-tetrahydroisoquinoline], the IC50 lay within 0.001 to 0.5 µM.

In the case of `C=CC(=O)N1CCc2ccc(OC3CCC(F)(F)C3)cc2C1` (centres unmarked) [P-0085, 1-(7-((3,3-difluorocyclopentyl)oxy)-3,4-dihydroisoquinolin-2(1H)-yl)prop-2-en-1-one], the IC50 was in the range of 0.001 to 0.5 µM.

Regarding `C=CC(=O)N1CCc2ccc(NC3CCC(F)(F)CC3)cc2C1` [P-0029, 1-(7-((4,4-difluorocyclohexyl)amino)-3,4-dihydroisoquinolin-2(1H)-yl)prop-2-en-1-one], the IC50 lay in the range of 0.001 to 0.5 µM.

For `C=CC(=O)N1CCc2ccc(NC34CCC(CC3)CC4)cc2C1` [P-0054, 1-(7-(bicyclo[2.2.2]octan-1-ylamino)-3,4-dihydroisoquinolin-2(1H)-yl)prop-2-en-1-one formate], the IC50 fell in the range of 0.001 to 0.5 µM.

Turning to `C=CC(=O)N1CCc2ccc(Oc3ccc(F)c(F)c3)cc2C1` [P-0016, 1-(7-(3,4-difluorophenoxy)-3,4-dihydroisoquinolin-2(1H)-yl)prop-2-en-1-one], the IC50 was in the range of 0.001 to 0.5 µM.

Take `C=CC(=O)N1CCc2ccc(Oc3ccccc3F)cc2C1` [P-0063, 1-(7-(2-fluorophenoxy)-3,4-dihydroisoquinolin-2(1H)-yl)prop-2-en-1-one]: the IC50 is 0.001 to 0.5 µM.

With `C/C=C/C(=O)N1CCc2ccc(Oc3ccc(C(F)(F)F)cc3)cc2C1` [P-0123, (E)-1-(7-(4-(trifluoromethyl)phenoxy)-3,4-dihydroisoquinolin-2(1H)-yl)but-2-en-1-one], the IC50 is 0.001 to 0.5 µM.

With `C=CC(=O)N1CCc2ccc(OC3CCC4(CCCC4)CC3)cc2C1` [P-0064, 1-(7-(spiro[4.5]decan-8-yloxy)-3,4-dihydroisoquinolin-2(1H)-yl)prop-2-en-1-one], the IC50 is 0.5 to 20 µM.

Turning to `C=CC(=O)N1CCc2ccc(OC3CCS(=O)(=O)CC3)cc2C1` [P-0084, 1-(7-((1,1-dioxidotetrahydro-2H-thiopyran-4-yl)oxy)-3,4-dihydroisoquinolin-2(1H)-yl)prop-2-en-1-one], the IC50 is 0.001 to 0.5 µM.

For the molecule `C=CC(=O)N1CCc2ccc(C(F)c3ccc(C(F)(F)F)nc3)cc2C1` (centres unmarked) [P-0105, 1-(7-(fluoro(6-(trifluoromethyl)pyridin-3-yl)methyl)-3,4-dihydroisoquinolin-2(1H)-yl)prop-2-en-1-one], the IC50 fell in the range of 0.5 to 20 µM.

Turning to `C=CC(=O)N1CCc2ccc(C(F)(F)c3ccc(C(F)(F)F)nc3)cc2C1` [P-0106, 1-(7-(difluoro(6-(trifluoromethyl)pyridin-3-yl)methyl)-3,4-dihydroisoquinolin-2(1H)-yl)prop-2-en-1-one], the IC50 lay within 0.001 to 0.5 µM.

Turning to `C=C(CO)C(=O)N1CCc2ccc(Oc3ccc(C(F)(F)F)cc3)cc2C1` [P-0126, 2-(hydroxymethyl)-1-(7-(4-(trifluoromethyl)phenoxy)-3,4-dihydroisoquinolin-2(1H)-yl)prop-2-en-1-one], the IC50 was 0.001 to 0.5 µM.

For `C=CC(=O)N1CCc2ccc(N[C@H]3CC[C@H](C(F)(F)F)CC3)cc2C1` [P-0056, 1-(7-(((1r,4r)-4-(trifluoromethyl)cyclohexyl)amino)-3,4-dihydroisoquinolin-2(1H)-yl)prop-2-en-1-one], the IC50 lay in the range of 0.001 to 0.5 µM.

Broadly, the IC50 is the point on the concentration scale where inhibition reaches its midpoint.
